In patent US11286236B2, “Compound, agent and composition for the suppression of cancer growth” (Vector Vitale IP LLC, priority 2018, dated 2022):

Tests used:
Type in all cases: cell-based
Mouse Bone Marrow Cells = assay: Cytotoxic/cytostatic effects on mouse bone marrow cells (MTT assay)
Experimental: In Vitro Assessment of Cytotoxic/Cytostatic Effects of Experimental Compound ^85Rbe-E2 on Mouse Bone Marrow Cells
(§1) Proliferative and metabolic activity of cells was determined by the colorimetric method.
(§2) The metabolic activity of the cells (i.e., the number of living cells) was assessed by MTT staining.
(§3) 24 hours after the last reagent, the cells were seeded at a concentration of 1×10^4 cells/well in wells of a 96-well plate in complete DMEM nutrient medium with 10% FBS and 40 μg/ml gentamicin. The cells were cultured in a humidified atmosphere at 5% CO2 and 37° C. for 24 hours. After 24 hours, various doses of experimental substances were added to the respective wells. The cells were incubated at 37° C. and 5% CO2 for an additional 72 hours.
(§4) Upon completion of the incubation with the preparations, the proliferative and metabolic activity of the cells in the experiment was evaluated by the colorimetric method by staining MTT cells:
(§5) 10 μl of the MTT solution (5 mg/ml of the dye in phosphate-buffered saline) was added to each well of the plate; the plate was incubated in a CO2 incubator at 37° C. for 3 hours. After that, the medium was removed from the wells, and the formed tetraformazan crystals were dissolved in 100 μl of dimethylsulfoxide.
(§6) When MTT was used, the results were evaluated using a multi-well spectrophotometer at an excitation wavelength of 540 nm. The percentage of viable cells was calculated by the formula: IR=(A540(experiment)/A540(control))×100%.

Normal Human Fibroblasts = assay: Metabolic activity of normal human fibroblasts (MTT assay)
Experimental: In Vitro Assessment of the Effects of Experimental Compound ^85Rbe-E2 on metabolic Activity of Normal Human Fibroblasts (MTT Assay)
In Vitro Assessment of the Effects of E2+^85Rbe on Metabolic Activity of Normal Human Fibroblasts (MTT Assay)
as §1, §2, §3, §4, §5, §6

[1] = test system: human Keratinocytes (HaCaT line); assay: Metabolic activity of human keratinocytes (HaCaT line)
Experimental: In Vitro Effects of Experimental Compound ^85Rbe-E2 on metabolic activity of human Keratinocytes
as §1, §2, §3, §4, §5, §6

[2] = test system: Mouse melanoma cells (MM-4 cell line); assay: Cytotoxic effect on melanoma cells, single agents (crystal violet)
Experimental: Materials and Methods: Mouse melanoma cells (MM-4 cell line) were seeded into 96-well plates (TPP, Italy) in DMEM (High Glucose w/L-Glutamine w/o Sodium Pyruvate; Biowest, France) supplemented with 10% newborn calf serum (Biowest, France) and […] gentamicin (Sigma, USA) at a seeding density of 5×10^4 cells/ml. The cells were then cultured in an incubator with a humidified atmosphere of 5% CO2 in air at 37° C. 24 hours after the cells were seeded, a compound according to the invention that comprises ^85Rb-enriched rubidium salt of N-benzoyl-N′-(4-toluenesulfonyl)-o-phenylenediamine of formula I was added into the appropriate wells. ^85Rbe-E2 was used at the following doses: 2.0 μg/ml, 1.0 μg/ml, 0.5 μg/ml (each is the final concentration of ^85Rbe after addition to the well). The cytotoxic effect was determined by counting the number of live cells observed after treatment, expressed as a percentage of the number of live cells observed/counted in the control (cells seed in the well and not treated). Control cells were not treated. For each concentration, the experiment was carried out twice. The effects of the drugs were evaluated visually, which allowed us to examine the morphological pattern of the cytotoxic action of the drugs, and by staining the cells with crystal violet, followed by OD measurement at an excitation wavelength of 540 nm using a MultiScan spectrophotometer. For comparison, a parallel experiment was carried out with the use of a known antitumor drug cisplatin and a compound of rubidium salt of N-benzoyl-N′-(4-toluenesulfonyl)-o-phenylenediamine of formula I which comprised a naturally-abundant mixture of isotopes of rubidium instead of being enriched for the ^85Rb isotope.

SMILES: Cc1ccc(S(=O)(=O)[N-]c2ccccc2NC(=O)c2ccccc2)cc1.[Rb+] [E2 + Rb, rubidium salt of N-benzoyl-N′-(4-toluenesulfonyl)-o-phenylenediamine]
- Metabolic activity of cells, % (Mouse Bone Marrow Cells; 1.25 μg/ml): 111.2 ± 6.6%
- Metabolic activity of cells, % (Mouse Bone Marrow Cells; 2.5 μg/ml): 106.8 ± 6%
- Metabolic activity of cells, % (Mouse Bone Marrow Cells; 5 μg/ml): 106.7 ± 11.8%
- Metabolic activity of cells, % (Mouse Bone Marrow Cells; 10 μg/ml): 99.3 ± 4.7%
- Metabolic activity of cells, % (Mouse Bone Marrow Cells; 20 μg/ml): 88 ± 3.5%
- Metabolic activity of cells, % (Mouse Bone Marrow Cells; 38 μg/ml): 96.2 ± 4.4%
- Metabolic activity of cells, % (Mouse Bone Marrow Cells; 75 μg/ml): 105.2 ± 7.8%
- Metabolic activity of cells, % (Mouse Bone Marrow Cells; 150 μg/ml): 107.1 ± 3.8%
- Metabolic activity of cells, % (Normal Human Fibroblasts; 2.5 μg/ml): 128.2 ± 8.3%
- Metabolic activity of cells, % (Normal Human Fibroblasts; 5 μg/ml): 103.4 ± 9.3%
- Metabolic activity of cells, % (Normal Human Fibroblasts; 10 μg/ml): 104.6 ± 14.2%
- Metabolic activity of cells, % (Normal Human Fibroblasts; 20 μg/ml): 96.8 ± 9.8%
- Metabolic activity of cells, % (Normal Human Fibroblasts; 38 μg/ml): 98.8 ± 7.1%
- Metabolic activity of cells, % (Normal Human Fibroblasts; 75 μg/ml): 97.7 ± 7.5%
- Metabolic activity of cells, % (Normal Human Fibroblasts; 150 μg/ml): 99.3 ± 3.2%
- Metabolic activity of cells, % ([1]; 16 ng/ml): 104.7 ± 3.2%
- Metabolic activity of cells, % ([1]; 31 ng/ml): 99.2 ± 12.5%
- Metabolic activity of cells, % ([1]; 62 ng/ml): 97.3 ± 4.1%
- Metabolic activity of cells, % ([1]; 0.13 μg/ml): 87.5 ± 6.7%
- Metabolic activity of cells, % ([1]; 0.25 μg/ml): 95 ± 1.7%
- Metabolic activity of cells, % ([1]; 0.5 μg/ml): 103 ± 2.7%
- Metabolic activity of cells, % ([1]; 1 μg/ml): 130 ± 2%
- Number of cells after their treatment with the drug, % ([2]; 0.5 μg/ml of rubidium (85Rbe or Rb)): 90.6 ± 0.9%
- Number of cells after their treatment with the drug, % ([2]; 1.0 μg/ml of rubidium (85Rbe or Rb)): 84.9 ± 0.9%
- Number of cells after their treatment with the drug, % ([2]; 2.0 μg/ml of rubidium (85Rbe or Rb)): 62.1 ± 0.8%
- Activity against tumor cells compared with the 85Rb-enriched salt ([2]; 0.5-2.0 μg rubidium/ml): significantly lower activity against tumor cells
